Source: patent publication US20230183193A1, “4-DIFLUOROMETHYL BENZOYL AMIDES WITH HERBICIDAL ACTION” (BAYER CROPSCIENCE AKTIENGESELLSCHAFT, priority 2017, published 2023)

How the values were obtained:
Type in all cases: in vivo
[1] = tested on: Matricaria inodora; assay: Pre-emergence herbicidal action, MATIN; conditions: dosage 320 g/ha, scored visually after 3 weeks vs untreated controls
Text: (§1) 1. Pre-Emergence Herbicidal Action Against Harmful Plants Seeds of monocotyledonous and dicotyledonous weed plants and crop plants are laid out in sandy loam soil in wood-fiber pots and covered with soil. The compounds of the invention, formulated in the form of wettable powders (WP) or as emulsion concentrates (EC), are then applied to the surface of the covering soil in the form of an aqueous suspension or emulsion at a water application rate equating to […], with addition of 0.2% wetting agent. After the treatment, the pots are placed in a greenhouse and kept under good growth conditions for the trial plants. The damage to the test plants is scored visually after a test period of 3 weeks by comparison with untreated controls (herbicidal activity in percent (%): 100% activity=the plants have died, 0% activity=like control plants).
(§2) For comparison, the herbicidal activity of numerous compounds according to the invention was tested with the structurally closest compounds known from the documents WO 2011/035874, WO 2012/028579 and WO 2012/126932, by the pre- and post-emergence method.

[2] = tested on: Amaranthus retroflexus; assay: Pre-emergence herbicidal action, AMARE; conditions: dosage 320 g/ha, scored visually after 3 weeks vs untreated controls
Text: as §1, §2

[3] = tested on: Abutilon theophrasti; assay: Pre-emergence herbicidal action, ABUTH; conditions: dosage 320 g/ha, scored visually after 3 weeks vs untreated controls
Text: as §1, §2

[4] = tested on: Setaria viridis; assay: Pre-emergence herbicidal action, SETVI; conditions: dosage 320 g/ha, scored visually after 3 weeks vs untreated controls
Text: as §1, §2

[5] = tested on: Abutilon theophrasti; assay: Post-emergence herbicidal action, ABUTH; conditions: 80 g/ha, Table D
Method: (§3) Seeds of monocotyledonous and dicotyledonous weed and crop plants are laid out in sandy loam soil in wood-fiber pots, covered with soil and cultivated in a greenhouse under good growth conditions. 2 to 3 weeks after sowing, the test plants are treated at the one-leaf stage. The compounds of the invention, formulated in the form of wettable powders (WP) or as emulsion concentrates (EC), are then sprayed onto the green parts of the plants in the form of an aqueous suspension or emulsion at a water application rate equating to […], with addition of 0.2% wetting agent. After the test plants have been left to stand in the greenhouse under optimal growth conditions for about 3 weeks, the action of the preparations is assessed visually in comparison to untreated controls (herbicidal action in percent (%): 100% activity=the plants have died, 0% activity=like control plants). […] At the same time, inventive compounds leave Gramineae crops such as barley, wheat, rye, millet/sorghum, corn or rice virtually undamaged when applied post-emergence, even at high active compound dosages. In addition, some substances are also harmless to dicotyledonous crops such as soya, cotton, oilseed rape, sugar beet or potatoes. Some of the compounds according to the invention have high selectivity and are therefore suitable for controlling unwanted vegetation in agricultural crops by the post-emergence method. The data of Tables C and D below illustrate, in an exemplary manner, the […] herbicidal action of the compounds according to the invention, the herbicidal activity being stated in percent.
as §2

[6] = tested on: Stellaria media; assay: Post-emergence herbicidal action, STEME; conditions: 80 g/ha, Table D
Method: as §3, §2

[7] = tested on: Avena fatua; assay: Post-emergence herbicidal action, AVEFA; conditions: 80 g/ha, Table C
Method: as §3, §2

[8] = tested on: Cyperus serotinus; assay: Pre-emergence herbicidal action, CYPES; conditions: dosage 320 g/ha, scored visually after 3 weeks vs untreated controls
Text: as §1, §2

[9] = tested on: Viola tricolor; assay: Post-emergence herbicidal action, VIOTR; conditions: 80 g/ha, Table D
Method: as §3, §2

[10] = tested on: Setaria viridis; assay: Post-emergence herbicidal action, SETVI; conditions: 80 g/ha, Table C
Method: as §3, §2

[11] = tested on: Viola tricolor; assay: Pre-emergence herbicidal action, VIOTR; conditions: dosage 320 g/ha, scored visually after 3 weeks vs untreated controls
Text: as §1, §2

[12] = tested on: ECHCG; assay: Post-emergence herbicidal action, ECHCG; conditions: 80 g/ha, Table C
Method: as §3

[13] = tested on: Amaranthus retroflexus; assay: Post-emergence herbicidal action, AMARE; conditions: 80 g/ha, Table D
Method: as §3, §2

[14] = tested on: Stellaria media; assay: Pre-emergence herbicidal action, STEME; conditions: dosage 320 g/ha, scored visually after 3 weeks vs untreated controls
Text: as §1, §2

[15] = tested on: Avena fatua; assay: Pre-emergence herbicidal action, AVEFA; conditions: dosage 320 g/ha, scored visually after 3 weeks vs untreated controls
Text: as §1, §2

[16] = tested on: Pharbitis purpureum; assay: Post-emergence herbicidal action, PHBPU; conditions: 80 g/ha, Table D
Method: as §3, §2

[17] = tested on: Alopecurus myosuroides; assay: Post-emergence herbicidal action, ALOMY; conditions: 80 g/ha, Table C
Method: as §3, §2

[18] = tested on: Alopecurus myosuroides; assay: Pre-emergence herbicidal action, ALOMY; conditions: dosage 320 g/ha, scored visually after 3 weeks vs untreated controls
Text: as §1, §2

Row | Structure (SMILES) | herbicidal activity MATIN [1] [%] | herbicidal activity AMARE [2] [%] | herbicidal activity ABUTH [3] [%] | herbicidal activity SETVI [4] [%] | herbicidal activity ABUTH [5] [%] | Herbicidal activity STEME [6] [%] | herbicidal activity AVEFA [7] [%] | herbicidal activity CYPES [8] [%] | herbicidal activity VIOTR [9] [%] | herbicidal activity SETVI [10] [%] | herbicidal activity VIOTR [11] [%] | Herbicidal activity ECHCG [12] [%] | herbicidal activity AMARE [13] [%] | Herbicidal activity STEME [14] [%] | herbicidal activity AVEFA [15] [%] | Herbicidal activity PHBPU [16] [%] | herbicidal activity ALOMY [17] [%] | herbicidal activity ALOMY [18] [%]
1 | CCn1nnnc1NC(=O)c1ccc(C(F)F)c(S(C)(=O)=O)c1F [Example 2-39] | 100 | 100 | 100 | 100 | 100 | 100 | 80 | 100 | 100 | 100 | 100 | 90 | 90 | 100 | 100 | 90 |  | 
2 | CCc1c(C(=O)Nc2nnc(C)o2)ccc(C(F)F)c1SC [Example 7-11] |  | 100 | 100 | 100 | 90 | 90 |  | 90 | 100 | 90 | 100 | 90 | 90 | 80 | 90 | 90 | 90 | 80
3 | CCn1nnnc1NC(=O)c1ccc(C(F)F)c(S(C)(=O)=O)c1Cl [Example 2-51] | 100 | 100 | 100 | 100 | 100 | 100 | 90 | 90 | 100 | 90 | 100 | 90 | 100 | 90 | 100 | 90 |  | 90
4 | CCSc1c(C(F)F)ccc(C(=O)Nc2nnnn2CC)c1C [Example 2-4] | 100 | 100 | 100 | 100 |  | 100 | 100 | 100 | 100 | 90 | 100 | 90 |  | 90 | 100 | 100 | 90 | 100
5 | Cc1c(C(=O)Nc2ncnn2C)ccc(C(F)F)c1[S+](C)[O-] (stereo not shown) [Example 4-2] | 100 | 100 | 100 | 100 | 90 | 90 | 80 | 80 | 100 | 80 | 90 | 100 | 100 | 100 | 80 | 90 |  | 
6 | CCc1c(C(=O)Nc2nnnn2CC)ccc(C(F)F)c1[S+](C)[O-] (stereo not shown) [Example 2-14] | 100 | 100 | 100 | 100 | 100 | 100 | 90 | 100 | 100 | 100 | 100 | 100 | 100 | 100 | 100 | 90 |  | 100
7 | CCS(=O)(=O)c1c(C(F)F)ccc(C(=O)Nc2nnnn2C)c1F [Example 1-42] | 100 | 100 | 100 | 100 | 90 | 100 |  | 100 | 100 | 90 | 100 | 80 | 100 | 100 | 100 | 100 |  | 100
8 | CCn1nnnc1NC(=O)c1ccc(C(F)F)c([S+](C)[O-])c1Cl (stereo not shown) [Example 2-50] | 100 | 100 | 100 | 100 | 100 | 100 | 100 | 100 | 100 | 100 | 100 | 90 | 100 | 100 | 100 | 100 |  | 100
9 | CCSc1c(C(F)F)ccc(C(=O)Nc2nnnn2CC)c1F [Example 2-40] | 100 | 100 | 100 | 100 | 100 | 100 |  |  | 100 | 100 | 100 | 100 | 100 | 100 |  | 90 | 80 | 
10 | CCn1nnnc1NC(=O)c1ccc(C(F)F)c(S(=O)(=O)CC)c1F [Example 2-42] | 100 | 100 | 100 | 100 | 100 | 100 |  | 90 | 100 | 100 | 100 | 100 | 90 | 90 | 90 | 90 |  | 90
11 | CCCn1nnnc1NC(=O)c1ccc(C(F)F)c([S+](C)[O-])c1C (stereo not shown) [Example 3-2] | 100 | 100 | 100 | 100 | 80 | 100 | 90 | 80 | 100 | 100 | 100 | 90 |  | 90 | 90 | 90 | 90 | 90
